Test results as given in article PMC9421654, “Discovery of Substituted Di(pyridin-2-yl)-1,2,4-thiadiazol-5-amines as Novel Macrofilaricidal Compounds for the Treatment of Human Filarial Infections” (Journal of Medicinal Chemistry, 2022).
Converted amounts (≈) assume the structure as drawn. “And” between values parts separate entries of the source, which are not always exact repeats. Identical values can stand only once. Like-named read-outs stand apart in the source and are kept apart here. Each block holds one molecule with its values, some of them ahead of it.

How the values were obtained:
[1] = Liver microsome metabolic stability assay, mouse; format: in vitro ADME; conditions: Tables 2 and 3; footnote: tested in the mouse liver microsome assay; 3 μM, 30 min
Description: (§1) Liver Microsome Metabolic Stability Assay: Incubations were performed at 37 °C in a Dubnoff Shaking water bath using 2 mL 96-well incubation plates. Liver microsome protein concentration was 0.3 mg/mL the final concentration of NADPH was 1 mM. Substrate concentrations are 3µM, incubation time is 30 minutes, and all tests are done in triplicate. The incubation was conducted in 200 mM Phosphate buffer containing 2 mM magnesium chloride, pH=7.4 and the total incubation volume was 0.5 mL. Samples were analyzed via LC-MS/MS and reported as percentage remaining after 30minute incubation, which can then be converted to half-life and intrinsic clearance. […]

[2] = system: O. gutturosa adult male worms; test: O. gutturosa adult worm ex vivo assay, motility; format: cell-based, Onchocerca gutturosa; conditions: Onchocerca gutturosa
In short: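 Adult male O. gutturosa from naturally infected cattle were cultured in supplemented MEM at 37 °C, 5% CO2, with four worms per concentration in serial 1-in-4 dilutions. Motility (0–10 scale) was scored every 24 h to 120 h. EC50 (geomean, n=2) for motility reduction came from 4PL fits, and viability was checked by MTT at 120 h.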

[3] = Liver microsome metabolic stability assay, human; format: in vitro ADME; conditions: 3 μM, 30 min
Description: as §1

[4] = LogD measurement (octanol-water); format: physicochemical
In short: (§2)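 Human and rat liver microsomes (0.3 mg/mL) with 1 mM NADPH and 3µM substrate, 30 minutes at 37 °C in pH 7.4 phosphate/MgCl2, triplicate; LC-MS/MS percentage remaining. LogD: octanol/aqueous buffer (pH 7.4, 2.2, 6.8, 5), 24 h shaking at room temperature. Kinetic solubility: 200 µM, 2% DMSO, 24 h, filtered.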

[5] = system: O. gutturosa adult male worms; test: O. gutturosa adult worm ex vivo assay, MTT/formazan viability; format: cell-based, Onchocerca gutturosa; conditions: Onchocerca gutturosa, supplement; SD in brackets in the PDF table; read-out: O. gutturosa EC50 (uM) MTT viability inhibition
In short: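 Adult male worms from naturally infected Gambian cattle were kept individually in MEM with 10% newborn calf serum at 37 °C, 5% CO2; four worms per concentration. Motility was scored 0-10 every 24 h to 120 h as a percentage of maximum, with ≥50% reduction versus untreated counted active. Afterwards, MTT (0.5 mg/mL, 30 min) formazan was read at 490 nm.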

[6] = Kinetic solubility measurement; format: physicochemical
In short: as §2

[7] = system: THLE-2 cells; test: THLE-2 cytotoxicity assay (ATP); conditions: Homo sapiens, THLE-2, read-out: THLE IC50
Description: In vitro cytotoxicity of select compounds was tested in a “normal” proliferating transformed human liver epithelial (THLE-2) cell line.[35] Compounds were incubated in THLE-2 cells for 24 and 72 h, and adenosine triphosphate (ATP) levels were used as an indicator of cell viability.
THLE-2 Cytotoxicity Assay: THLE-2 cells (ATCC, catalog #CRL-2706) were plated in LHC-8 Media (Invitrogen, catalog #12679015) supplemented with fetal bovine serum (GE, catalog #SH30088.03), 70 ng/mL phosphoethanolamine (Sigma, catalog #P0503), 5 ng/mL EGF (Sigma, catalog #E9644), 1X penicillin/streptomycin (Gibco, catalog #15140148), and 1X glutamine (Invitrogen, catalog #25030024) in 384-well clear-bottom, black walled plates at a density of 3750 cells/well (15μL/well). After plating, cells were incubated overnight at 37°C in an incubator with 5% CO2 and 90% humidity. Compounds were first serially diluted in dimethyl sulfoxide then diluted in LHC-8 media growth media to 2X concentration. Cells were dosed with 15μL of each dose for final concentrations between 0.01 – 300 μM. Cells were incubated with compounds for 24 or 72 hours. Cytotoxicity was determined with Cell Titer Glo Luminescent ATP Assay (Promega, catalog #G7573) according to the manufacturer’s instructions. Tamoxifen (Sigma, catalog #BC9353476) was used as a positive control. levels at each dose were normalized to that of cells dosed with dimethyl sulfoxide vehicle alone and IC50 values were calculated from non-linear regression fits of dose-response curves plotted

[8] = biological target: T1, hERG potassium channels (KCNH2, expressed in HEK293 cells) (Homo sapiens, UniProt Q12809); test: hERG inhibition; format: cell-based; conditions: supplement
T1 construct: expressed in transfected cells

[9] = biological target: T2, P-gp (MDR1) (Homo sapiens, UniProt P08183); test: MDCK/MDR1 permeability and efflux; format: in vitro ADME; conditions: dog
T2 construct: expressed in transfected cells; host or cells: MDCK (Madin Darby canine kidney) cells
Text: Our approach was to target compounds with efflux ratio (ER) >2.5 in the MDCK cell line transfected with MDR1 (multidrug resistance-1 transfected Madin Darby canine kidney cell line). […] Our goal was to impart structural elements designed to impart Pgp recognition.

[10] = Liver microsome metabolic stability assay, rat; format: in vitro ADME; conditions: Table 1; 3 μM, 30 min
Description: as §1

[11] = read-out: O. gutturosa EC50 μM (SD), ex vivo adult worm motility reduction, SD in brackets
[12] = read-out: O. gutturosa EC50 (uM) motility inhibition, supplement, SD in brackets in the PDF table
[13] = supplement, read-out: measured logD

T1 sequence (Q12809 whole entry): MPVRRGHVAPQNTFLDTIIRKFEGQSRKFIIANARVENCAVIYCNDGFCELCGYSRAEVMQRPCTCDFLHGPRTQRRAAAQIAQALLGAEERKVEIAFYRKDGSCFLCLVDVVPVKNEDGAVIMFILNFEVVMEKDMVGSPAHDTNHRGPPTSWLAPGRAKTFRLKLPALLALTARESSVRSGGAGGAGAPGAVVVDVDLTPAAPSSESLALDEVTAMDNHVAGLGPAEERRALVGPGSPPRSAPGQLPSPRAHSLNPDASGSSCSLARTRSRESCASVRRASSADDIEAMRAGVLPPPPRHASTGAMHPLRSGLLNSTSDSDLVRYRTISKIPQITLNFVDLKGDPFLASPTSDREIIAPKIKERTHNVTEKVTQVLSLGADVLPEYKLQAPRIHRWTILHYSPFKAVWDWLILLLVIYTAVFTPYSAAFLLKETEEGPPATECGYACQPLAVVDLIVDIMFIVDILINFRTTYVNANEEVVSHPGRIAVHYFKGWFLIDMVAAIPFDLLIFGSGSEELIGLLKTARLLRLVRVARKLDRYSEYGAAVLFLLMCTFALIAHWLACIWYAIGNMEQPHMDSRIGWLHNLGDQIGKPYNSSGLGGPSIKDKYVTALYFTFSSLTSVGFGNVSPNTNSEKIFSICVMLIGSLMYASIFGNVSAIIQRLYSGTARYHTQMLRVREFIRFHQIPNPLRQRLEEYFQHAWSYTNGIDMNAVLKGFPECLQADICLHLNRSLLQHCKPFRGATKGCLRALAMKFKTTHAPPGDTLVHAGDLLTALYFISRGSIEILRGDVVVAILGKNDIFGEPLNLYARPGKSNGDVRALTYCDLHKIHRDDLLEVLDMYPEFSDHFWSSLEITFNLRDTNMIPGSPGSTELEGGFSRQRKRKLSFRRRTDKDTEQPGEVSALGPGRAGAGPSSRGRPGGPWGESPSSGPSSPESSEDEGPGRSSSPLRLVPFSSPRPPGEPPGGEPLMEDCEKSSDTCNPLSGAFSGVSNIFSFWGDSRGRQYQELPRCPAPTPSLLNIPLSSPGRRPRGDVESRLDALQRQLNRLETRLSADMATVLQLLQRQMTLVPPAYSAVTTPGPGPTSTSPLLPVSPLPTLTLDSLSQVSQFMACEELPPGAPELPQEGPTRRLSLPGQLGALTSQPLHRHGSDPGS
T2 sequence (P08183 whole entry): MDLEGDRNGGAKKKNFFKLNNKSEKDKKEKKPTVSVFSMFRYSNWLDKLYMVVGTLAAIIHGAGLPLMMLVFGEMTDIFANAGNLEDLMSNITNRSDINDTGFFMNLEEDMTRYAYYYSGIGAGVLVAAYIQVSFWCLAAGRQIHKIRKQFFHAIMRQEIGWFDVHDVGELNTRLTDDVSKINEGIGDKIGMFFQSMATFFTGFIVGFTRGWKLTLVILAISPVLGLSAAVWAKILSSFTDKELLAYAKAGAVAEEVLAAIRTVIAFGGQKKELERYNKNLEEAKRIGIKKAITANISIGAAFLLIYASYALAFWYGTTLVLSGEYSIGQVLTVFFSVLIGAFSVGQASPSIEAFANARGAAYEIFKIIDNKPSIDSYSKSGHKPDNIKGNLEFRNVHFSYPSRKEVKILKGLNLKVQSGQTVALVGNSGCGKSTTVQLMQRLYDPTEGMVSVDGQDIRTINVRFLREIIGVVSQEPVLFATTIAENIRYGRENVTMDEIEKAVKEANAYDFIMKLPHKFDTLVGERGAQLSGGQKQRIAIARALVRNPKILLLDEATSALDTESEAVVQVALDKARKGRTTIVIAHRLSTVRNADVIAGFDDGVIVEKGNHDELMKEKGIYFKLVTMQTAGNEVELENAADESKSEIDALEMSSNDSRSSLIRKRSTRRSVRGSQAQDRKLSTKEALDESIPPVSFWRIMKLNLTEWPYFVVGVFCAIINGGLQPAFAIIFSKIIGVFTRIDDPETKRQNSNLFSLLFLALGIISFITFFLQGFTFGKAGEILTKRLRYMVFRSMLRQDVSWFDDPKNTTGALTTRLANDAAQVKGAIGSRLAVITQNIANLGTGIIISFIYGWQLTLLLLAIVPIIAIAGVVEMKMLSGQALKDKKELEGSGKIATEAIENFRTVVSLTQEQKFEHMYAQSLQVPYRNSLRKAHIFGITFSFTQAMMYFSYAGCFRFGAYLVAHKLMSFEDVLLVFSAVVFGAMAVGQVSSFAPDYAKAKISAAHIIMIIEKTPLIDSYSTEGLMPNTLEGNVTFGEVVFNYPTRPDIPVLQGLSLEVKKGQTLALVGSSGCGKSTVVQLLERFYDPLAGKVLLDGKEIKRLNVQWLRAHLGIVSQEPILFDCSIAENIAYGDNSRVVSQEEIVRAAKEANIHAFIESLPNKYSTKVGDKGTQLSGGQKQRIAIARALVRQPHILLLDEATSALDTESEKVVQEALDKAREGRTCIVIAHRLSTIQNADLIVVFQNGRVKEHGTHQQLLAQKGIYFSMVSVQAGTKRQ

SMILES: CC(C)Oc1cnc(-c2nsc(Nc3ncccc3C(C)C)n2)cc1C(F)(F)F [Compound 24, 3-(5-Isopropoxy-4-(trifluoromethyl)pyridin-2-yl)-N-(3-isopropylpyridin-2-yl)-1,2,4-thiadiazol-5-amine]
- Rat Microsomes [1]: 96 % remaining
- EC50 [2, 11]: 0.05 µM
- EC50 [2, 12]: 0.051 µM
- EC50 ([2]; read-out: O. gutturosa EC50, adult worm motility, bound stated): < 0.1 µM
- Human Microsomes [3]: 97 % remaining
- logD at 24 h ([4]; pH 7.4, read-out: logD): 2.9
- logD at 24 h [4, 13]: 2.9
- EC50 [5]: 0.75 µM
- solubility kinetic at 24 h ([6]; 10 mM DMSO stock solutions): 1.05 µM (≈ 0.445 µg/mL)

SMILES: CC(=O)N(C)c1cc(C(F)(F)F)cnc1Nc1nc(-c2ccc(OC(C)C)cn2)ns1 [Compound 54, N-(2-((3-(5-Isopropoxypyridin-2-yl)-1,2,4-thiadiazol-5-yl)amino)-5-(trifluoromethyl)pyridin-3-yl)-N-methylacetamide]
- IC50 [7]: 6.1 µM
- EC50 [2, 11]: 0.14 µM
- EC50 [2, 12]: 0.139 µM
- IC50 [8]: > 30 µM
- Papp A→B [9]: 9.9 ×10⁻⁶ cm/s
- logD at 24 h ([4]; pH 7.4, read-out: logD): 3.13
- logD at 24 h [4, 13]: 3.13
- EC50 [5]: 0.15 µM
- solubility kinetic at 24 h ([6]; 10 mM DMSO stock solutions): 13.1 µM (≈ 5.95 µg/mL)

- Rat Microsomes [10]: 89 % remaining
- Human Microsomes [3]: 77 % remaining
- logD at 24 h [4, 13]: 2.15
- solubility kinetic at 24 h ([6]; 10 mM DMSO stock solutions): 182 µM (≈ 67.2 µg/mL)
SMILES: Cc1cccnc1Nc1nsc(-c2ccc(OC3CCOCC3)cn2)n1 [Compound 5, N-(3-Methylpyridin-2-yl)-5-(5-((tetrahydro-2h-pyran-4-yl)oxy)pyridin-2-yl)-1,2,4-thiadiazol-3-amine]

SMILES: CC(=O)N(C)c1cccnc1Nc1nc(-c2cc(C(F)(F)F)c(OC(C)C)cn2)ns1 [Compound 48]
- IC50 [7]: 8.3 µM
- EC50 [2, 11]: 3.71 µM
- IC50 [8]: 26 µM
- Papp A→B [9]: 6.9 ×10⁻⁶ cm/s
- logD at 24 h ([4]; pH 7.4, read-out: logD): 3.5
- logD at 24 h [4, 13]: 3.5
- EC50 [5]: 1.05 µM
- solubility kinetic at 24 h ([6]; 10 mM DMSO stock solutions): 10.8 µM (≈ 4.86 µg/mL)
- solubility kinetic at 24 h ([6]; supplement): 10.8 µM (≈ 4.89 µg/mL)

SMILES: CC(C)Oc1ccc(-c2nsc(Nc3ncccc3C(=O)N(C)C)n2)nc1 [Compound 61, 2-((3-(5-Isopropoxypyridin-2-yl)-1,2,4-thiadiazol-5-yl)amino)-N,N-dimethylnicotinamide]
- IC50 [7]: 32.5 µM
- EC50 [2, 11]: 0.36 µM
- EC50 [2, 12]: 0.357 µM
- IC50 [8]: > 30 µM
- Papp A→B [9]: 4.9 ×10⁻⁶ cm/s
- logD at 24 h ([4]; pH 7.4, read-out: logD): 2.1
- logD at 24 h [4, 13]: 2.1
- EC50 [5]: 2.1 µM
- solubility kinetic at 24 h ([6]; 10 mM DMSO stock solutions): 101 µM and 100.70 µM
